From the supplement of paper PMC8967900

system: NALL-1; experiment: selective drug sensitivity score (sDSS, relative to normal bone marrow) (sDSS (score)); higher = more potent and effective on the cell line relative to normal bone marrow cells; settings: 72 h
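Further: ALL cell lines in 384-well plates, five doses spanning 10,000-fold, each plate scaled between vehicle and 100 µmol/L benzalkonium chloride controls, sDSS an adapted area-under-curve metric.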

Row | SMILES | selective drug sensitivity score
1 | CCOC(=O)CCNc1cc(N2CCc3ccccc3CC2)nc(-c2ccccn2)n1 [GSK-J4] (top concentration 100000 nM) | -9.18
2 | Cc1cc(Nc2cc(CN3CCOCC3)c3nc(C)c(Cc4ccc(Cl)cc4F)n3n2)n[nH]1 [Gandotinib] (top concentration 10000 nM) | 4.88
3 | NC(=O)NO [Hydroxyurea] (top concentration 1000000 nM) | -3.74
4 | Cc1ccc(NC(=O)c2ccc(CN3CCN(C)CC3)cc2)cc1Nc1nccc(-c2cccnc2)n1 [Imatinib] (top concentration 10000 nM) | -0.44
5 | CC(C)NC[C@@H](C(=O)N1CCN(c2ncnc3c2[C@H](C)C[C@H]3O)CC1)c1ccc(Cl)cc1 [Ipatasertib] (top concentration 10000 nM) | 1.8
6 | CCC(C)n1ncn(-c2ccc(N3CCN(c4ccc(OCC5COC(Cn6cncn6)(c6ccc(Cl)cc6Cl)O5)cc4)CC3)cc2)c1=O (stereo not given) [Itraconazole] (top concentration 5000 nM) | -4.12
7 | Cc1sc2c(c1C)C(c1ccc(Cl)cc1)=N[C@@H](CC(=O)OC(C)(C)C)c1nnc(C)n1-2 [JQ1] (top concentration 10000 nM) | 0.42
8 | CCNC(=O)c1noc(-c2cc(C(C)C)c(O)cc2O)c1-c1ccc(CN2CCOCC2)cc1 [Luminespib] (top concentration 1000 nM) | -5.8
9 | O=C(c1cccc(Cl)c1F)N1CCN(Cc2cccc(Nc3nccs3)n2)CC1 [MK-8745] (top concentration 10000 nM) | 12.4
10 | Cc1ccc(NC(=O)c2ccc(CN3CCN(C)CC3)cc2)cc1Nc1nc(-c2cccnc2)cs1 [Masitinib] (top concentration 10000 nM) | -4.38
11 | CCN(CC)CCCC(C)Nc1c2ccc(Cl)cc2nc2ccc(OC)cc12 (stereo not given) [Mepacrine] (top concentration 50000 nM) | -10
12 | COc1ccc(-c2ccc3ncc4c(c3c2)n(-c2ccc(N3CCNCC3)c(C(F)(F)F)c2)c(=O)n4C)cn1 [NVP-BGT226] (top concentration 1000 nM) | -2.88
13 | COc1nc(N)nc2c1ncn2[C@@H]1O[C@H](CO)[C@@H](O)[C@@H]1O [Nelarabine] (top concentration 10000 nM) | -10.2
14 | Cc1cn(-c2cc(NC(=O)c3ccc(C)c(Nc4nccc(-c5cccnc5)n4)c3)cc(C(F)(F)F)c2)cn1 [Nilotinib] (top concentration 10000 nM) | 5.8
15 | NC(=O)c1cccc2cn(-c3ccc(C4CCCNC4)cc3)nc12 (stereo not given) [Niraparib] (top concentration 10000 nM) | 4.08
16 | COc1ccc(C[C@H](NC(=O)[C@H](C)NC(=O)CN2CCOCC2)C(=O)N[C@@H](Cc2ccccc2)C(=O)[C@@]2(C)CO2)cc1 [ONX-0914] (top concentration 10000 nM) | 9.8
17 | CC(=O)c1cnc2ccc(-c3cc(Cl)c(O)c(Cl)c3)nc2c1N[C@H]1CC[C@H](CN(C)C)CC1 [OTS167] (top concentration 1000 nM) | -8.72
18 | COC(=O)C[C@](O)(CCCC(C)(C)O)C(=O)O[C@@H]1C(OC)=C[C@]23CCCN2CCc2cc4c(cc2[C@H]13)OCO4 [Omacetaxine] (top concentration 10000 nM) | -6.78

system: P30-OHKUBO; experiment: as above; settings: 72 h

Row | SMILES | selective drug sensitivity score
19 | CCOC(=O)CCNc1cc(N2CCc3ccccc3CC2)nc(-c2ccccn2)n1 [GSK-J4] (top concentration 100000 nM) | -8.18
20 | Cc1cc(Nc2cc(CN3CCOCC3)c3nc(C)c(Cc4ccc(Cl)cc4F)n3n2)n[nH]1 [Gandotinib] (top concentration 10000 nM) | 6.28
21 | NC(=O)NO [Hydroxyurea] (top concentration 1000000 nM) | 7.66
22 | Cc1ccc(NC(=O)c2ccc(CN3CCN(C)CC3)cc2)cc1Nc1nccc(-c2cccnc2)n1 [Imatinib] (top concentration 10000 nM) | 0.06
23 | CC(C)NC[C@@H](C(=O)N1CCN(c2ncnc3c2[C@H](C)C[C@H]3O)CC1)c1ccc(Cl)cc1 [Ipatasertib] (top concentration 10000 nM) | 1.9
24 | CCC(C)n1ncn(-c2ccc(N3CCN(c4ccc(OCC5COC(Cn6cncn6)(c6ccc(Cl)cc6Cl)O5)cc4)CC3)cc2)c1=O (stereo not given) [Itraconazole] (top concentration 5000 nM) | -2.62
25 | Cc1sc2c(c1C)C(c1ccc(Cl)cc1)=N[C@@H](CC(=O)OC(C)(C)C)c1nnc(C)n1-2 [JQ1] (top concentration 10000 nM) | 8.72
26 | CCNC(=O)c1noc(-c2cc(C(C)C)c(O)cc2O)c1-c1ccc(CN2CCOCC2)cc1 [Luminespib] (top concentration 1000 nM) | -3.9
27 | O=C(c1cccc(Cl)c1F)N1CCN(Cc2cccc(Nc3nccs3)n2)CC1 [MK-8745] (top concentration 10000 nM) | 9.1
28 | Cc1ccc(NC(=O)c2ccc(CN3CCN(C)CC3)cc2)cc1Nc1nc(-c2cccnc2)cs1 [Masitinib] (top concentration 10000 nM) | 1.22
29 | CCN(CC)CCCC(C)Nc1c2ccc(Cl)cc2nc2ccc(OC)cc12 (stereo not given) [Mepacrine] (top concentration 50000 nM) | -0.3
30 | COc1ccc(-c2ccc3ncc4c(c3c2)n(-c2ccc(N3CCNCC3)c(C(F)(F)F)c2)c(=O)n4C)cn1 [NVP-BGT226] (top concentration 1000 nM) | 12.2
31 | COc1nc(N)nc2c1ncn2[C@@H]1O[C@H](CO)[C@@H](O)[C@@H]1O [Nelarabine] (top concentration 10000 nM) | -1.82
32 | Cc1cn(-c2cc(NC(=O)c3ccc(C)c(Nc4nccc(-c5cccnc5)n4)c3)cc(C(F)(F)F)c2)cn1 [Nilotinib] (top concentration 10000 nM) | 2.5
33 | NC(=O)c1cccc2cn(-c3ccc(C4CCCNC4)cc3)nc12 (stereo not given) [Niraparib] (top concentration 10000 nM) | 5.98
34 | COc1ccc(C[C@H](NC(=O)[C@H](C)NC(=O)CN2CCOCC2)C(=O)N[C@@H](Cc2ccccc2)C(=O)[C@@]2(C)CO2)cc1 [ONX-0914] (top concentration 10000 nM) | -1.8
35 | CC(=O)c1cnc2ccc(-c3cc(Cl)c(O)c(Cl)c3)nc2c1N[C@H]1CC[C@H](CN(C)C)CC1 [OTS167] (top concentration 1000 nM) | 0.98
36 | COC(=O)C[C@](O)(CCCC(C)(C)O)C(=O)O[C@@H]1C(OC)=C[C@]23CCCN2CCc2cc4c(cc2[C@H]13)OCO4 [Omacetaxine] (top concentration 10000 nM) | 3.12

system: PF-382; experiment: as above; settings: 72 h

Row | SMILES | selective drug sensitivity score
37 | CCOC(=O)CCNc1cc(N2CCc3ccccc3CC2)nc(-c2ccccn2)n1 [GSK-J4] (top concentration 100000 nM) | -7.58
38 | Cc1cc(Nc2cc(CN3CCOCC3)c3nc(C)c(Cc4ccc(Cl)cc4F)n3n2)n[nH]1 [Gandotinib] (top concentration 10000 nM) | 1.88
39 | NC(=O)NO [Hydroxyurea] (top concentration 1000000 nM) | 1.26
40 | Cc1ccc(NC(=O)c2ccc(CN3CCN(C)CC3)cc2)cc1Nc1nccc(-c2cccnc2)n1 [Imatinib] (top concentration 10000 nM) | -0.24
41 | CC(C)NC[C@@H](C(=O)N1CCN(c2ncnc3c2[C@H](C)C[C@H]3O)CC1)c1ccc(Cl)cc1 [Ipatasertib] (top concentration 10000 nM) | 4.2
42 | CCC(C)n1ncn(-c2ccc(N3CCN(c4ccc(OCC5COC(Cn6cncn6)(c6ccc(Cl)cc6Cl)O5)cc4)CC3)cc2)c1=O (stereo not given) [Itraconazole] (top concentration 5000 nM) | 0.38
43 | Cc1sc2c(c1C)C(c1ccc(Cl)cc1)=N[C@@H](CC(=O)OC(C)(C)C)c1nnc(C)n1-2 [JQ1] (top concentration 10000 nM) | 5.22
44 | CCNC(=O)c1noc(-c2cc(C(C)C)c(O)cc2O)c1-c1ccc(CN2CCOCC2)cc1 [Luminespib] (top concentration 1000 nM) | -1.4
45 | O=C(c1cccc(Cl)c1F)N1CCN(Cc2cccc(Nc3nccs3)n2)CC1 [MK-8745] (top concentration 10000 nM) | 8.5
